The text below walks through data of US20030008843A1, “Bulking agents as satiety agents” (priority 2001, published 2003).

For experiment [1] the following is noted: after ingestion of 25 g xylitol; control 58±5 min; cited from earlier work.
For experiment [2] the following is noted: after oral preloading of 25 g xylitol with water, cited from earlier work.
Experiment [3] is described as follows: ad libitum test lunch energy intake 1.5 hours after yoghurt pre-load, days 1 and 10 (Example 1). Format: in vivo, human. As to conditions: for difference in average test meal energy intake versus control (significance): paired comparison; for difference in average test meal energy intake versus control (significance) / combined (pre-load and test lunch) energy intake versus control (significance): p<0.05; for combined (pre-load and test lunch) energy intake versus control (significance): post-hoc paired comparisons. The text has this: Eight female and seven male subjects with mean ages ranging from about 29.5 to 30.7 yr. were used in the study. They were lean (having BMI of 21.6 Kg/m^2-23.8 Kg/m^2), and they exercised between 2-3 times per week. There were four experimental conditions that all subjects completed in a counterbalanced order with each condition separated by a one-week washout period. During each experimental condition, subjects were provided with either control or test yoghurts to consume as part of their normal diet for 10 consecutive days. The four experimental conditions differed according to the type of carbohydrate added to the yoghurt consumed: [table] Volunteers were required to consume one portion (200 g) of yoghurt on each of the 10 days. Therefore, energy content of the yoghurts varied between the four yoghurt formulations while weight was held constant. Subjects consumed the yoghurts for 10 consecutive days. However, days 2-9 were free-living during which time they were not required to visit the human appetite research unit (HARU), where the studies described hereinbelow were performed. On days 1 and 10 (test days), subjects were required to visit the HARU for a fixed breakfast at 8:30 a.m. and an ad libitum test lunch. The energy and nutrient content of the breakfast, was fixed for each of the conditions. Immediately after breakfast subjects were free to leave the unit and instructed to consume the yoghurt at 11:00am and not to consume any other food or drink during the breakfast-lunch interval. At 12:30 subjects returned to the unit for the ad libitum test lunch and were instructed to eat until a comfortable level of fullness. The food was weighed immediately before and after the test lunch to determine the energy and nutrient of food consumed. The test lunch was mixed composition (31% Fat, 53% Carbohydrate and 16% Protein) and consisted of sandwiches, […] fruit. Immediately after the test lunch subjects were provided with their yoghurts for days 2-9 and were instructed to return at 8:30 on day 10. On days 1 and 10, volunteers were provided with an ad libitum lunch 1.5 hours following consumption of the yoghurt pre-load.

For experiment [4] the following is noted: humans; cited from earlier work.

For `OC[C@@H](O)[C@H](O)[C@@H](O)CO` [Xyl, Xylitol], in experiment [1], the “gastric emptying T-1/2” value is 91 ± 7 min. Moreover, the “reduction in calories versus control” value in experiment [2] is 25%. Besides, the food intake in experiment [2] (control 920±60 Kcal) is 690 ± 45 kcal. Also, the “Suppression (%) in energy intake compared with the control yoghurt, All” value in experiment [3] (all subjects, 25 g/day in 200 g yoghurt, test lunch 1.5 h after pre-load) is 11.9%. In experiment [3] (all subjects, energy content of pre-load accounted for), the “Suppression (%) in combined preload plus test meal energy intake compared with the control yoghurt, All” value was found to be 14.8%. Further, in experiment [3] (females, energy content of pre-load accounted for), the “Suppression (%) in combined preload plus test meal energy intake compared with the control yoghurt, Females” value is 11.6%. Besides, in experiment [3] (females, test lunch 1.5 h after pre-load), the “Suppression (%) in energy intake compared with the control yoghurt, Females” value is listed as 6.4%. For the same molecule, in experiment [3] (males, energy content of pre-load accounted for), the “Suppression (%) in combined preload plus test meal energy intake compared with the control yoghurt, Males” value came to 16.1%. Besides, the “Suppression (%) in energy intake compared with the control yoghurt, Males” value in experiment [3] (males, test lunch 1.5 h after pre-load) was 15.3%. In addition, in experiment [3], the “difference in average test meal energy intake versus control (significance)” value is “statistically significant”; the “combined (pre-load and test lunch) energy intake versus control (significance)” value was “significantly lower”. Moreover, in experiment [3] (listed as xylitol), the “difference in average test meal energy intake versus control (significance)” value is on record as “significant reduction”; the “combined (pre-load and test lunch) energy intake versus control (significance)” value is “significant calorie reduction”.
As to `CCCCCCCCCCC[C@@H](C[C@@H]1OC(=O)[C@H]1CCCCCC)OC(=O)[C@H](CC(C)C)NC=O` [tetrahydrolipostatin], the “reduction of human absorption of fat” value in experiment [4] was 30%.
